Measurements published in PMC6934184, “Selective DNA-PKcs inhibition extends the therapeutic index of localized radiotherapy and chemotherapy” (The Journal of Clinical Investigation, 2019).

Molecular target: T1, JAK2 JH1 JH2 (Homo sapiens, UniProt O60674)
T1 construct: JAK2 JH1 JH2; purchased Thermo Fisher Scientific (Life Technologies) SelectScreen
Test: SelectScreen Z'LYTE
Format: biochemical
Summary of the method: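 SelectScreen broad panel; activity (Z'LYTE, Adapta) plus binding formats. ATP: Km app for CSF1R Z'LYTE; 10 for CAMK1 Adapta. Readout = % per kinase.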

T1 sequence (O60674 532-1132 limits assumed): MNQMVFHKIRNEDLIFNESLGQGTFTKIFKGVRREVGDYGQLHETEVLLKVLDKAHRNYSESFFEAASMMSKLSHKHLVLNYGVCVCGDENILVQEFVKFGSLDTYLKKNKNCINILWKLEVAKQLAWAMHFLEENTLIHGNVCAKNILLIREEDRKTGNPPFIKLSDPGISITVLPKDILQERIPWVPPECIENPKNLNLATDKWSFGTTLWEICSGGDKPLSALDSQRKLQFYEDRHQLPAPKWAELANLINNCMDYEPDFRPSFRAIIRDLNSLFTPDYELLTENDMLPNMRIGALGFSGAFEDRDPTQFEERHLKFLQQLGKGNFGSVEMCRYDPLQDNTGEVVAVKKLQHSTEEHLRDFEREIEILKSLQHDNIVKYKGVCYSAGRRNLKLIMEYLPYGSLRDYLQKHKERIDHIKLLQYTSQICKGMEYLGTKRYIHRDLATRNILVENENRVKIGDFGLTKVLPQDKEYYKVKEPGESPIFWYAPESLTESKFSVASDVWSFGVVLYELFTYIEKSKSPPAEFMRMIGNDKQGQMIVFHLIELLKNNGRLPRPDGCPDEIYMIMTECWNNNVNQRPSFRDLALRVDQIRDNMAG

CN(C(=O)CN1CCOCC1)c1ccc2sc3c(-c4cccc5c(=O)cc(N6CC7CCC(C6)O7)oc45)cccc3c2c1 [NU5455]
inhibition at 1 µM: -6.7%
